Experimental data as given in the NIST ThermoML archive (doi:10.1021/acs.jced.8b00812).

Details: Liquid; for viscosity: Capillary tube (Ostwald / Ubbelohde) method; for mass density: Vibrating tube method

CCCCCCCCO [octan-1-ol]
Details | mass density [kg/m3] | viscosity [mPa·s]
298.15 K, 2000 kPa | 823.6 | 7.363
298.15 K, 4010 kPa | 824.8 | 7.542
298.15 K, 6000 kPa | 826 | 7.702
298.15 K, 8000 kPa | 827.2 | 7.865
298.15 K, 10000 kPa | 828.4 | 8.031
298.15 K, 13010 kPa | 830.1 | 8.3
298.15 K, 16010 kPa | 831.8 | 8.568
298.15 K, 18990 kPa | 833.4 | 8.825
298.15 K, 22010 kPa | 835 | 9.112
298.15 K, 25010 kPa | 836.6 | 9.397
298.15 K, 28010 kPa | 838.3 | 9.668
298.15 K, 30010 kPa | 839.3 | 9.866
303.15 K, 1990 kPa | 819.4 | 6.327
303.15 K, 3990 kPa | 820.6 | 6.481
303.15 K, 5980 kPa | 821.9 | 6.632
303.15 K, 10010 kPa | 824.4 | 6.941
303.15 K, 16020 kPa | 827.9 | 7.4
303.15 K, 19030 kPa | 829.7 | 7.63
303.15 K, 25000 kPa | 833 | 8.087
303.15 K, 29980 kPa | 835.6 | 8.468
303.16 K, 7980 kPa | 823.1 | 6.785
303.16 K, 13000 kPa | 826.2 | 7.169
303.16 K, 22010 kPa | 831.3 | 7.858
303.16 K, 28000 kPa | 834.6 | 8.316
313.15 K, 1970 kPa | 812.3 | 4.516
313.15 K, 4000 kPa | 813.6 | 4.627
313.15 K, 6010 kPa | 815 | 4.737
313.15 K, 8000 kPa | 816.3 | 4.846
313.15 K, 10010 kPa | 817.5 | 4.955
313.15 K, 13030 kPa | 819.4 | 5.12
313.15 K, 15980 kPa | 821.2 | 5.281
313.15 K, 18990 kPa | 823 | 5.446
313.15 K, 21990 kPa | 824.8 | 5.61
313.15 K, 25000 kPa | 826.5 | 5.774
313.15 K, 27980 kPa | 828.2 | 5.937
313.15 K, 29990 kPa | 829.3 | 6.047
323.15 K, 2010 kPa | 805.6 | 3.262
323.15 K, 4010 kPa | 807 | 3.348
323.15 K, 6010 kPa | 808.4 | 3.427
323.15 K, 8000 kPa | 809.7 | 3.499
323.15 K, 10010 kPa | 811.1 | 3.573
323.15 K, 13020 kPa | 813 | 3.688
323.15 K, 16020 kPa | 814.9 | 3.797
323.15 K, 19010 kPa | 816.8 | 3.91
323.15 K, 22000 kPa | 818.6 | 4.03
323.15 K, 25010 kPa | 820.4 | 4.149
323.15 K, 28010 kPa | 822.1 | 4.264
323.15 K, 30020 kPa | 823.3 | 4.343

CCCCCO [pentan-1-ol]
Details | mass density [kg/m3] | viscosity [mPa·s]
298.15 K, 2000 kPa | 813 | 3.59
298.15 K, 4000 kPa | 814.4 | 3.66
298.15 K, 6000 kPa | 815.8 | 3.732
298.15 K, 8010 kPa | 817.1 | 3.796
298.15 K, 10000 kPa | 818.5 | 3.869
298.15 K, 13000 kPa | 820.4 | 3.975
298.15 K, 16000 kPa | 822.3 | 4.081
298.15 K, 19010 kPa | 824.1 | 4.192
298.15 K, 22000 kPa | 825.9 | 4.299
298.15 K, 25000 kPa | 827.6 | 4.409
298.15 K, 27990 kPa | 829.4 | 4.507
298.15 K, 29980 kPa | 830.4 | 4.577
303.15 K, 19000 kPa | 820.3 | 3.757
303.15 K, 27980 kPa | 825.6 | 4.041
303.16 K, 1980 kPa | 808.8 | 3.219
303.16 K, 3980 kPa | 810.2 | 3.282
303.16 K, 6010 kPa | 811.7 | 3.346
303.16 K, 8020 kPa | 813 | 3.41
303.16 K, 10030 kPa | 814.4 | 3.474
303.16 K, 12990 kPa | 816.4 | 3.567
303.16 K, 15980 kPa | 818.4 | 3.662
303.16 K, 22010 kPa | 822.1 | 3.852
303.16 K, 25000 kPa | 823.9 | 3.947
303.16 K, 29990 kPa | 826.7 | 4.105
313.15 K, 1990 kPa | 800.6 | 2.438
313.15 K, 4000 kPa | 802.2 | 2.486
313.15 K, 5980 kPa | 803.7 | 2.533
313.15 K, 7980 kPa | 805.1 | 2.581
313.15 K, 10020 kPa | 806.6 | 2.629
313.15 K, 13010 kPa | 808.7 | 2.701
313.15 K, 19020 kPa | 812.8 | 2.845
313.15 K, 21980 kPa | 814.7 | 2.916
313.15 K, 30020 kPa | 819.6 | 3.109
313.16 K, 15980 kPa | 810.8 | 2.772
313.16 K, 24990 kPa | 816.6 | 2.988
313.16 K, 28000 kPa | 818.4 | 3.06
323.15 K, 2000 kPa | 793.5 | 1.833
323.15 K, 4000 kPa | 795 | 1.866
323.15 K, 6000 kPa | 796.7 | 1.901
323.15 K, 8000 kPa | 798.2 | 1.935
323.15 K, 10000 kPa | 799.6 | 1.969
323.15 K, 13000 kPa | 801.9 | 2.022
323.15 K, 16000 kPa | 804 | 2.078
323.15 K, 19000 kPa | 806.1 | 2.133
323.15 K, 22000 kPa | 808.2 | 2.189
323.15 K, 25000 kPa | 810.2 | 2.244
323.15 K, 27990 kPa | 812.1 | 2.299
323.15 K, 29990 kPa | 813.4 | 2.335
